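Test compounds were applied to cells in 96-well plates for 48 hours at 5 doses. GI50 marks 50% less growth.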 Activity calls are given as the source filed them. Cut-off read from the data, not from the text of the source: active = GI50 up to about 1.1 µM and inactive = higher.
What was measured:
Experiment in all cases: inhibition of tumour cell growth, NCI panel, 48 h
HCT-15 = system: HCT-15
SF-268 = system: SF-268
IGROV-1 = system: IGROV-1
RXF 393 = system: RXF 393
MCF7 = system: MCF7
K562 = system: K562
SR = system: SR
HCC 2998 = system: HCC 2998
BT-549 = system: BT-549
SK-MEL-5 = system: SK-MEL-5
LOX IMVI = system: LOX IMVI
SW-620 = system: SW-620
HL-60 = system: HL-60
A549 = system: A549
RPMI-8226 = system: RPMI-8226
NCI-H522 = system: NCI-H522
EKVX = system: EKVX
SK-OV-3 = system: SK-OV-3
OVCAR-4 = system: OVCAR-4
HOP-92 = system: HOP-92

SMILES	GI50 (HCT-15)	GI50 (SF-268)	GI50 (IGROV-1)	GI50 (RXF 393)	GI50 (MCF7)	GI50 (K562)	GI50 (SR)	GI50 (HCC 2998)	GI50 (BT-549)	GI50 (SK-MEL-5)	GI50 (LOX IMVI)	GI50 (SW-620)	GI50 (HL-60)	GI50 (A549)	GI50 (RPMI-8226)	GI50 (NCI-H522)	GI50 (EKVX)	GI50 (SK-OV-3)	GI50 (OVCAR-4)	GI50 (HOP-92)
Cc1ncc2c(=O)c3c(oc2n1)c1ccccc1n3Cc1ccccc1	> 100 µM	> 100 µM (inactive)	> 100 µM (inactive)	> 100 µM (inactive)	> 100 µM (inactive)	> 100 µM (inactive)	> 100 µM (inactive)	> 100 µM (inactive)	> 100 µM (inactive)	> 100 µM (inactive)	> 100 µM (inactive)	> 100 µM (inactive)	> 100 µM (inactive)	> 100 µM (inactive)	> 100 µM (inactive)	> 100 µM (inactive)	> 100 µM (inactive)			
CC(C)OP(=O)(OC(C)C)C(C(C)C)N(C)/C(N)=N\C1=NC(C(F)(F)F)(C(F)(F)F)N=C(C(C(F)(F)F)C(F)(F)F)O1 (configuration not stated)	3.75 µM	2.62 µM (inactive)	2.39 µM (inactive)	1.6 µM (inactive)	3.79 µM (inactive)	1.76 µM (inactive)	1.9 µM (inactive)	4.91 µM (inactive)	2.79 µM (inactive)	1.56 µM (inactive)	1.79 µM (inactive)	2.28 µM (inactive)	1.12 µM (inactive)	2.88 µM (inactive)	1.97 µM (inactive)	1.41 µM (inactive)	3.66 µM (inactive)	5.4 µM (inactive)		
CCOC(=O)c1c2c(n(C)c1-c1ccccc1)C(=O)C(C)=CC2=O	3.36 µM	8.11 µM (inactive)	5.46 µM (inactive)	8.97 µM (inactive)	2.37 µM (inactive)	3.44 µM (inactive)	1.91 µM (inactive)		13.2 µM (inactive)	9.62 µM (inactive)	3.48 µM (inactive)	4.06 µM (inactive)	2.94 µM (inactive)	12.2 µM (inactive)	1.9 µM (inactive)	1.69 µM (inactive)	5.87 µM (inactive)	16.7 µM (inactive)	7.05 µM (inactive)	2.07 µM (inactive)
O=C1C2CC=CCC2C(=O)N1n1c(Cc2ccccc2)n[nH]c1=O (configuration not stated)	> 100 µM	> 100 µM (inactive)	> 100 µM (inactive)	> 100 µM (inactive)	> 100 µM (inactive)	> 100 µM (inactive)	> 100 µM (inactive)	> 100 µM (inactive)	> 100 µM (inactive)	> 100 µM (inactive)	> 100 µM (inactive)	> 100 µM (inactive)		> 100 µM (inactive)	> 100 µM (inactive)	> 100 µM (inactive)	> 100 µM (inactive)	> 100 µM (inactive)	> 100 µM (inactive)	> 100 µM (inactive)
O=S(=O)(O)c1cc(Cl)c(O)c2ncc(Cl)cc12	41.7 µM		35.4 µM (inactive)	> 100 µM (inactive)	51.8 µM (inactive)	41.6 µM (inactive)	32.2 µM (inactive)	> 100 µM (inactive)	79.4 µM (inactive)	84.3 µM (inactive)	31 µM (inactive)	56.8 µM (inactive)		77.1 µM (inactive)	45.2 µM (inactive)		69 µM (inactive)		42.7 µM (inactive)	87.1 µM (inactive)
C=C[C@H]1CN2CCc3c([nH]c4cc(O)ccc34)[C@@H]2C[C@@H]1C[C@H]1c2[nH]c3ccccc3c2CCN1C	2.54 µM	6.04 µM (inactive)	1.85 µM (inactive)		2.31 µM (inactive)	2.78 µM (inactive)	2.67 µM (inactive)	1.76 µM (inactive)	13.8 µM (inactive)	1.73 µM (inactive)	4.41 µM (inactive)	1.92 µM (inactive)	1.04 µM (active)	5.53 µM (inactive)		2.99 µM (inactive)	7.62 µM (inactive)	13.8 µM (inactive)	7.03 µM (inactive)	3.39 µM (inactive)

Source: ChEMBL document CHEMBL1201862, “PubChem BioAssay data set” (2004)
